In the experiment the test system is Rat Defecation Models Induced by Restraint Stress. Put plainly: Rat defecation models induced by restraint stress (number of feces within 60 minutes). It is filed as in vivo. An excerpt:
The fact that the morphinan derivatives having the nitrogen-containing cyclic substituent, represented by Formula (I) and the pharmaceutically acceptable acid addition salts thereof are effective for functional bowel disorders may be confirmed by showing inhibitory action against transportation ability of large intestine, which ability has been increased by applying restraint stress. The inhibitory action against the increased transportation ability of large intestine may be confirmed by a reported method (Miyata K et. al., J. Pharmacol. Exp. Ther., 261, 297-303, 1992. or Kobayashi S et. al., Jpn. J. Pharmacol., 86, 281-8, 2001.), but the method is not restricted thereto.
A solvent or the Compound 1 was subcutaneously administered, and 15 minutes later, application of restraint stress was started. The number of feces within 60 minutes from the beginning of the application of the stress was counted and the effect was evaluated (one group consisted of 6 rats). The rats in a control group to which the restraint stress was not applied were merely moved to a new plastic cage.
In the group to which 5 w/v % xylitol solution containing 0.1 w/v % citric acid used as the solvent alone was administered, the rats to which the restraint stress was not applied defecated 1.0 feces on average within the 60 minutes, while the rats to which the restraint stress was applied defecated 6.5 feces on average, so that increase in the number of feces caused by the stress was observed.
Compounds 10, 11, 12 and 13 were evaluated in the same manner as in Example 1. In the group to which 5 w/v % xylitol solution containing 0.1 w/v % citric acid used as the solvent alone was administered, the rats to which the restraint stress was applied defecated 7.5 feces on average within the 60 minutes. The number of feces was decreased to 0.3 on average when 0.3 mg/kg of Compound 10 was administered, decreased to 4.2 on average when 1 mg/kg of Compound 11 was administered, decreased to 3.7 on average when 0.3 mg/kg of Compound 12 was administered, and decreased to 4.1 on average when 10 mg/kg of Compound 13 was administered.

Setting [1] is: 0.3 mg/kg subcutaneous 15 minutes before restraint stress, solvent group with stress 7.5.

The structures appear in SMILES notation. Structures can show the parent of a compound that is named as a salt.

Five compounds from patent US8058286B2, “Method for therapy of diarrhea-predominant irritable bowel disorders” (Toray Industries, Inc., priority 2005, dated 2011) can be followed below.

Take `O=C1c2ccccc2C(=O)N1[C@@H]1CC[C@@]2(O)[C@H]3Cc4ccc(O)c5c4[C@@]2(CCN3CC2CC2)[C@H]1O5` [Compound 1, N-(17-cyclopropylmethyl-4,5α-epoxy-3,14-dihydroxy-morphinan-6β-yl)-phthalimide]: the “number of feces on average within 60 minutes from the beginning of restraint stress” value (“number of feces … of restraint stress” for short) (0.15 mg/kg subcutaneous 15 minutes before restraint stress, solvent group with stress 6.5, without stress 1.0) is recorded as 1.0. For the same compound, under “0.15 mg/kg subcutaneous, restraint stress, result in words”, the “activity to reduce the number of feces with respect to the solvent group” value is listed as “statistically significant activity to reduce the number of feces was observed”.
Turning to `O=C1C2=C(CCCC2)C(=O)N1[C@@H]1CC[C@@]2(O)[C@H]3Cc4ccc(O)c5c4[C@@]2(CCN3CC2CC2)[C@H]1O5` [Compound 10, N-(17-cyclopropylmethyl-4,5α-epoxy-3,14-dihydroxy-morphinan-6β-yl)-3,4,5,6-tetrahydrophthalimide•tartaric Acid Salt], the “number of feces … of restraint stress” value under setting [1] was 0.3.
As for `O=C1c2cccc(F)c2CN1[C@@H]1CC[C@@]2(O)[C@H]3Cc4ccc(O)c5c4[C@@]2(CCN3CC2CC2)[C@H]1O5` [Compound 11, 2-(17-cyclopropylmethyl-4,5α-epoxy-3,14-dihydroxy-morphinan-6β-yl)-4-fluoro-2,3-dihydro-isoindole-1-one-methanesulfonic Acid Salt], the “number of feces … of restraint stress” value (1 mg/kg subcutaneous 15 minutes before restraint stress, solvent group with stress 7.5) is reported as 4.2.
As to `O=C1c2ccccc2S(=O)(=O)N1[C@@H]1CC[C@@]2(O)[C@H]3Cc4ccc(O)c5c4[C@@]2(CCN3CC2CC2)[C@H]1O5` [Compound 12, N-(17-cyclopropylmethyl-4,5α-epoxy-3,14-dihydroxy-morphinan-6β-yl)-O-sulfonbenzimide•tartaric Acid Salt], the “number of feces … of restraint stress” value under setting [1] was 3.7.
Regarding `O=C1C=CC(=O)N1[C@@H]1CC[C@@]2(O)[C@H]3Cc4ccc(O)c5c4[C@@]2(CCN3CC2CC2)[C@H]1O5` [Compound 13, N-(17-cyclopropylmethyl-4,5α-epoxy-3,14-dihydroxy-morphinan-6β-yl)-maleimide•tartaric Acid Salt], the “number of feces … of restraint stress” value (10 mg/kg subcutaneous 15 minutes before restraint stress, solvent group with stress 7.5) is given as 4.1.
